Reference: the NIST ThermoML archive (doi:10.1016/j.jct.2014.06.030)
Numbers after ± are expanded uncertainties.

Details: 101.33 kPa, Liquid; for speed of sound: Sing-around technique in a fixed-path interferometer; for mass density: Vibrating tube method

Row | Structure (SMILES) | speed of sound (298.15 K) | mass density (298.15 K) | speed of sound (303.15 K) | mass density (303.15 K) | speed of sound (308.15 K) | mass density (308.15 K)
1 | Cc1ccccc1Cl [2-chlorotoluene] | 1298.7 ± 1.4 m/s | 1077.3 ± 1 kg/m3 | 1280.7 ± 1.4 m/s | 1072.5 ± 1 kg/m3 | 1262.7 ± 1.4 m/s | 1067.6 ± 1 kg/m3
2 | CNC=O [N-methylformamide] | 1431.6 ± 1.3 m/s | 999 ± 1 kg/m3 | 1417.4 ± 1.3 m/s | 994.65 ± 1 kg/m3 | 1402.2 ± 1.3 m/s | 990.3 ± 1 kg/m3
3 | C1CCCCC1 [cyclohexane] | 1253.6 ± 1.2 m/s | 773.94 ± 1 kg/m3 | 1229.1 ± 1.2 m/s | 769.21 ± 1 kg/m3 | 1205.1 ± 1.2 m/s | 764.45 ± 1 kg/m3
4 | CN(C)C=O [dimethylformamide] | 1458.5 ± 1.2 m/s | 944.6 ± 1 kg/m3 | 1440.2 ± 1.2 m/s | 939.83 ± 1 kg/m3 | 1420.8 ± 1.2 m/s | 935.05 ± 1 kg/m3
5 | C1CCOCC1 [tetrahydropyran] | 1269.8 ± 1.2 m/s | 879.13 ± 1 kg/m3 | 1246.8 ± 1.2 m/s | 873.99 ± 1 kg/m3 | 1224.4 ± 1.2 m/s | 868.83 ± 1 kg/m3
